Measured values: patent US20020061888A1, “Combination therapy for the prophylaxis and treatment of hyperlipidemic conditions and disorders” (priority 2000, published 2002)
“And” between values parts separate entries of the source, which are not always exact repeats. Equal entries are not always repeated.

Key:
Male beagle dogs [1] = test: Body or fecal weights, stool consistency, general animal health of treated beagle dogs; assay type: in vivo; conditions: Example 3 study (pravastatin 3-30 mg/kg/day, compound A-5 4.0 mg/kg/day, combination), any of the groups
Description: (§1) Male beagle dogs (9-10 kg) obtained from Marshall farms were fed a normal chow diet once a day for a two hour interval and given water ad libitum. Prior to initiating treatment, the dogs were weighed and blood samples were drawn from the cephalic vein of each dog following an overnight fast to evaluate pretreatment serum total cholesterol levels at the start of the study. […] All doses were administered in gelatin capsules per os to each dog between 9:00-9:30 a.m. prior to feeding. All animals were fed between 9:30-10:00 a.m. and were allowed two hours to eat, at which time any remaining food was removed. […] Animals were dosed daily for three weeks and blood samples were taken at the end of each week after an overnight fast for comparison with pretreatment serum total cholesterol levels. Three consecutive 24 hour fecal samples were collected for each group during the last 72 hours of each week and used to measure the concentration of fecal biles acids excreted during that time period.
Following this initial four week dose-ranging study, dogs from the two groups receiving 10 mg/kg/day pravastatin (a.m. and p.m. dosing groups) were randomized into two new treatment groups based on serum total cholesterol levels to initiate the combination treatment study. […] Dosing continued in this manner for an additional four weeks (Weeks 5-8) with blood and 48-hour fecal samples collected at the end of each week for serum lipid measurements and fecal bile acid determinations, respectively. […] At the end of this three-week period, pravastatin dosing and all empty capsule dosing were discontinued and blood samples were collected weekly for a final three weeks (weeks 12-14) to monitor the return of serum total cholesterol levels back to baseline.
Male beagle dogs (9-10 kg) obtained from Marshall farms were fed once a day for two hours and given water ad libitum.

Male beagle dogs [2] = test: Serum total cholesterol in beagle dogs (serum lipid measurements); assay type: in vivo; conditions: for SERUM TOTAL CHOLESTEROL / TOTAL SERUM CHOLESTEROL: n = 6; for decrease in serum total cholesterol concentration: compared to vehicle; for decrease in serum total cholesterol: after four weeks, vs pretreatment
Description: as §1
Blood was collected from the cephalic vein of each dog into serum separator tubes. The blood was centrifuged at 900×g for 20 minutes at room temperature and the serum decanted. All analyses were performed on a Cobas Mira Clinical Analyzer System (Roche Diagnostic Systems, Branchburg, N.J.) using Roche Diagnostic reagents for enzymatic determinations of serum cholesterol. Commercial calibrator and quality control materials were analyzed with each run to verify assay accuracy and precision. A two-tailed, paired Students t-test was used to determine the statistical significance of changes in serum total cholesterol in treated dogs compared to pretreatment values. A one-way analysis of variance (“ANOVA”) was used to compare each pair of treatment groups to determine the statistical significance of changes in serum total cholesterol.
Beagle dogs also were administered pravastatin to evaluate the monotherapeutic effect of pravastatin on serum total cholesterol.
Male beagle dogs (9-10 kg) obtained from Marshall farms were fed once a day for two hours and given water ad libitum. Prior to initiating treatment, blood samples were drawn from the cephalic vein of each dog to evaluate pretreatment total serum cholesterol levels at the start of the study.
For the dose ranging study, the dogs were assigned to one of five groups based on mean body weights and serum total cholesterol levels. Each group received one of the following dosages: (1) vehicle (empty capsule, afternoon dosing), (2) 3.0 mg/kg/day pravastatin (afternoon dosing), (3) 10 mg/kg/day pravastatin (afternoon dosing), (4) 30 mg/kg/day pravastatin (afternoon dosing), and (5) 10 mg/kg/day pravastatin (morning dosing). One capsule containing pravastatin was administered per os to each dog between 9:00-9:30 a.m. prior to feeding for the 10 mg/kg/day morning dosing group and between 2:30-3:00 p.m. for the afternoon dosing groups. All animals were fed between 9:30-10:00 a.m. and were allowed two hours to eat, at which time any remaining food was removed. […] Animals were dosed daily for four weeks and blood samples were taken at the end of each week after an overnight fast for comparison with pretreatment serum total cholesterol levels.
Following this initial four week dose-ranging study, dogs from the two groups receiving 10 mg/kg/day pravastatin (a.m. and p.m. dosing groups) were randomized into two new treatment groups based on serum total cholesterol levels to initiate the combination treatment study. […] Dosing continued in this manner for an additional four weeks (Weeks 5-8) with blood and 48-hour fecal samples collected at the end of each week for serum lipid measurements and fecal bile acid determinations, respectively.

Question: For `CC[C@H](C)C(=O)O[C@H]1C[C@H](O)C=C2C=C[C@H](C)[C@H](CC[C@@H](O)C[C@@H](O)CC(=O)O)[C@H]21` [pravastatin, Pravastatin], which “changes in body or fecal weights, stool consistency or general animal health” value (Male beagle dogs [1]) is on record?
Answer: no significant changes

Question: And the “% change in serum total cholesterol compared to the pretreatment value of each group” value (“% change in serum total cholesterol” below) (Male beagle dogs [2]; pravastatin 0.25 mg/kg/day, Week 1)?
Answer: (+2) %

Question: What about the “SERUM TOTAL CHOLESTEROL” value (Male beagle dogs [2]; pravastatin 0.25 mg/kg/day, Week 1, mean ± SEM) of the same compound?
Answer: 157 ± 10 mg/dL

Question: What about the “% change in serum total cholesterol” value (Male beagle dogs [2]; pravastatin 0.25 mg/kg/day, Week 2) of the same compound?
Answer: (+3) %

Question: And the “SERUM TOTAL CHOLESTEROL” value (Male beagle dogs [2]; pravastatin 0.25 mg/kg/day, Week 2, mean ± SEM)?
Answer: 159 ± 12 mg/dL

Question: And the “% change in serum total cholesterol” value (Male beagle dogs [2]; pravastatin 0.25 mg/kg/day, Week 3)?
Answer: (0) %

Question: And the “SERUM TOTAL CHOLESTEROL” value (Male beagle dogs [2]; pravastatin 0.25 mg/kg/day, Week 3, mean ± SEM)?
Answer: 154 ± 13 mg/dL

Question: What about the “decrease in serum total cholesterol concentration” value (Male beagle dogs [2]; pravastatin 0.25 mg/kg/day, one week of treatment) of the same compound?
Answer: 2%

Question: And the “decrease in serum total cholesterol concentration” value (Male beagle dogs [2]; pravastatin 0.25 mg/kg/day, three weeks of treatment)?
Answer: 0%

Question: What about the “% change in serum total cholesterol” value (Male beagle dogs [2]; pravastatin 1.0 mg/kg/day, Week 1) of the same compound?
Answer: (−1) %

Question: What about the “SERUM TOTAL CHOLESTEROL” value (Male beagle dogs [2]; pravastatin 1.0 mg/kg/day, Week 1, mean ± SEM) of the same compound?
Answer: 153 ± 11 mg/dL

Question: What about the “% change in serum total cholesterol” value (Male beagle dogs [2]; pravastatin 1.0 mg/kg/day, Week 2) of the same compound?
Answer: (−4) %

Question: What about the “SERUM TOTAL CHOLESTEROL” value (Male beagle dogs [2]; pravastatin 1.0 mg/kg/day, Week 2, mean ± SEM) of the same compound?
Answer: 149 ± 11^2 mg/dL

Question: What about the “% change in serum total cholesterol” value (Male beagle dogs [2]; pravastatin 1.0 mg/kg/day, Week 3) of the same compound?
Answer: (−8) %

Question: And the “SERUM TOTAL CHOLESTEROL” value (Male beagle dogs [2]; pravastatin 1.0 mg/kg/day, Week 3, mean ± SEM)?
Answer: 143 ± 10^2 mg/dL

Question: What about the “decrease in serum total cholesterol concentration” value (Male beagle dogs [2]; pravastatin 1.0 mg/kg/day, one week of treatment) of the same compound?
Answer: 1%

Question: And the “decrease in serum total cholesterol concentration” value (Male beagle dogs [2]; pravastatin 1.0 mg/kg/day, three weeks of treatment)?
Answer: 8%

Question: And the “% change in serum total cholesterol” value (Male beagle dogs [2]; pravastatin 3.0 mg/kg/day pm dosing, Week 1)?
Answer: (−1) %

Question: And the “TOTAL SERUM CHOLESTEROL” value (Male beagle dogs [2]; pravastatin 3.0 mg/kg/day pm dosing, Week 1, mean ± SEM)?
Answer: 157 ± 16 mg/dL

Question: And the “% change in serum total cholesterol” value (Male beagle dogs [2]; pravastatin 3.0 mg/kg/day pm dosing, Week 2)?
Answer: (−16) %

Question: And the “TOTAL SERUM CHOLESTEROL” value (Male beagle dogs [2]; pravastatin 3.0 mg/kg/day pm dosing, Week 2, mean ± SEM)?
Answer: 133 ± 11^3 mg/dL

Question: What about the “% change in serum total cholesterol” value (Male beagle dogs [2]; pravastatin 3.0 mg/kg/day pm dosing, Week 3) of the same compound?
Answer: (−11) %

Question: What about the “TOTAL SERUM CHOLESTEROL” value (Male beagle dogs [2]; pravastatin 3.0 mg/kg/day pm dosing, Week 3, mean ± SEM) of the same compound?
Answer: 140 ± 12^3 mg/dL

Question: And the “% change in serum total cholesterol” value (Male beagle dogs [2]; pravastatin 3.0 mg/kg/day pm dosing, Week 4)?
Answer: (−16) %

Question: What about the “TOTAL SERUM CHOLESTEROL” value (Male beagle dogs [2]; pravastatin 3.0 mg/kg/day pm dosing, Week 4, mean ± SEM) of the same compound?
Answer: 132 ± 10^3 mg/dL

Question: What about the “lowering of serum total cholesterol” value (Male beagle dogs [2]; pravastatin 3 mg/kg/day, four week dose ranging study) of the same compound?
Answer: 16%

Question: What about the “% change in serum total cholesterol” value (Male beagle dogs [2]; pravastatin 4.0 mg/kg/day, Week 1) of the same compound?
Answer: (−6) %

Question: What about the “SERUM TOTAL CHOLESTEROL” value (Male beagle dogs [2]; pravastatin 4.0 mg/kg/day, Week 1, mean ± SEM) of the same compound?
Answer: 148 ± 10^2 mg/dL

Question: And the “% change in serum total cholesterol” value (Male beagle dogs [2]; pravastatin 4.0 mg/kg/day, Week 2)?
Answer: (−7) %

Question: And the “SERUM TOTAL CHOLESTEROL” value (Male beagle dogs [2]; pravastatin 4.0 mg/kg/day, Week 2, mean ± SEM)?
Answer: 146 ± 8 mg/dL

Question: What about the “% change in serum total cholesterol” value (Male beagle dogs [2]; pravastatin 4.0 mg/kg/day, Week 3) of the same compound?
Answer: (−11) %

Question: What about the “SERUM TOTAL CHOLESTEROL” value (Male beagle dogs [2]; pravastatin 4.0 mg/kg/day, Week 3, mean ± SEM) of the same compound?
Answer: 139 ± 9^2 mg/dL

Question: What about the “decrease in serum total cholesterol concentration” value (Male beagle dogs [2]; pravastatin 4.0 mg/kg/day, one week of treatment) of the same compound?
Answer: 6%

Question: What about the “decrease in serum total cholesterol concentration” value (Male beagle dogs [2]; pravastatin 4.0 mg/kg/day, three weeks of treatment) of the same compound?
Answer: 11%

Question: And the “decrease in serum total cholesterol” value (Male beagle dogs [2]; pravastatin 10 mg/kg/day a.m. dosing)?
Answer: 16%

Question: And the “% change in serum total cholesterol” value (Male beagle dogs [2]; pravastatin 10.0 mg/kg/day am dosing, Week 1)?
Answer: (+6) %

Question: And the “TOTAL SERUM CHOLESTEROL” value (Male beagle dogs [2]; pravastatin 10.0 mg/kg/day am dosing, Week 1, mean ± SEM)?
Answer: 164 ± 12 mg/dL

Question: What about the “% change in serum total cholesterol” value (Male beagle dogs [2]; pravastatin 10.0 mg/kg/day am dosing, Week 2) of the same compound?
Answer: (−13) %

Question: What about the “TOTAL SERUM CHOLESTEROL” value (Male beagle dogs [2]; pravastatin 10.0 mg/kg/day am dosing, Week 2, mean ± SEM) of the same compound?
Answer: 135 ± 15^3 mg/dL

Question: And the “% change in serum total cholesterol” value (Male beagle dogs [2]; pravastatin 10.0 mg/kg/day am dosing, Week 3)?
Answer: (−15) %

Question: And the “TOTAL SERUM CHOLESTEROL” value (Male beagle dogs [2]; pravastatin 10.0 mg/kg/day am dosing, Week 3, mean ± SEM)?
Answer: 131 ± 10^3 mg/dL

Question: And the “% change in serum total cholesterol” value (Male beagle dogs [2]; pravastatin 10.0 mg/kg/day am dosing, Week 4)?
Answer: (−16) %

Question: And the “TOTAL SERUM CHOLESTEROL” value (Male beagle dogs [2]; pravastatin 10.0 mg/kg/day am dosing, Week 4, mean ± SEM)?
Answer: 130 ±7 mg/dL and 130 ± 7^3 mg/dL

Question: What about the “decrease in serum total cholesterol” value (Male beagle dogs [2]; pravastatin 10 mg/kg/day p.m. dosing) of the same compound?
Answer: 21%

Question: And the “% change in serum total cholesterol” value (Male beagle dogs [2]; pravastatin 10.0 mg/kg/day pm dosing, Week 1)?
Answer: (−8) %

Question: And the “TOTAL SERUM CHOLESTEROL” value (Male beagle dogs [2]; pravastatin 10.0 mg/kg/day pm dosing, Week 1, mean ± SEM)?
Answer: 146 ± 10 mg/dL

Question: What about the “% change in serum total cholesterol” value (Male beagle dogs [2]; pravastatin 10.0 mg/kg/day pm dosing, Week 2) of the same compound?
Answer: (−19) %

Question: What about the “TOTAL SERUM CHOLESTEROL” value (Male beagle dogs [2]; pravastatin 10.0 mg/kg/day pm dosing, Week 2, mean ± SEM) of the same compound?
Answer: 129 ± 10^3 mg/dL
